Results as given in article PMC4776139, “Extended string-like binding of the phosphorylated HP1α N-terminal tail to the lysine 9-methylated histone H3 tail” (Scientific Reports, 2016).
pKd: −log10 of the molar value.

Assays:
[1] = tested on: H3K9me peptide (22-mer, amino acids 1–21 of histone H3 with a C-terminal tyrosine); test: Isothermal titration calorimetry (ITC) of HP1α chromodomain constructs with H3K9me peptide; type: binding; conditions: for ΔS (entropy change): calculated from Kd and ΔH; for Ka / ΔH (enthalpy change): pH 6.80, one-site binding model; for pKd: VP-ITC, protein 40 μM in cell, titrated with 400 μM H3K9me peptide, one-site binding model; for fold weaker binding to H3K9me as compared with NCD^Δ1–9: relative to NCD^Δ1–9; for fold stronger binding to H3K9me than the CD alone: relative to CD (NCD^Δ1–19); for times more strongly bound H3K9me than the CD: relative to CD
Procedure: Protein solution (40 μM) was loaded into a VP-ITC isothermal titration calorimeter (Microcal, INC.) cell (active cell volume 1.4 ml). The solution was titrated against 400 μM ligand solution via a 250 μl titration syringe. Experiments were carried out at 20 °C. The ligand solution was prepared in the same buffer as the protein (20 mM KPB (pH 6.80), 10 mM NaCl). The heat of dilution generated by the ligand was subtracted, and the binding isotherms were fitted to a one-site binding model by using Origin 7 Software (Microcal, INC.). From the values of Kd and ΔH, the thermodynamic parameters, ΔG and ΔS were calculated according to the basic thermodynamic equations;

[2] = Small angle X-ray scattering (SAXS); type: physicochemical; conditions: for association state, in words: SAXS at 5, 10 and 15 mg/ml, no scattering from aggregated protein; for association state, in words / Dmax (maximum particle dimension): pH 6.8, 20 °C; for Rg (radius of gyration) / Estimated molecular weight (association state) / Dmax (maximum particle dimension): SAXS; for Rg (radius of gyration): Guinier plot; for Estimated molecular weight (association state): from I(0)/c compared to hen egg white lysozyme; for Dmax (maximum particle dimension): from P(r) function (GNOM); on Dmax (maximum particle dimension): values in Å; on Rg (radius of gyration): values in Å
Procedure: To confirm the structural differences between unmod-NCD and phos-NCD, small angle X-ray scattering (SAXS) experiments were carried out on CD, unmod-NCD, and phos-NCD. To check inter-particle interference, SAXS data were collect at three different protein concentrations, 5, 10 and 15 mg/ml (Supplementary Fig. S4). The radius of gyration Rg, and the estimated molecular weight from the forward scattering intensity I(0), of CD, unmod-NCD, and phos-NCD are summarized in Fig. 3. […] The Rg value of the CD at the three different protein concentrations was estimated as 14.0 ± 0.3, 13.8 ± 0.3 and 13.7 ± 0.2 Å, which are close to the Rg value calculated from the NMR structure of the CD (15.0 Å).
We converted the scattering profiles at 5 mg/ml to the P(r) function and the estimated maximum particle dimension, Dmax (Fig. 3). […] The Dmax of unmod-NCD (79 Å) and phos-NCD (94 Å) was larger than that of the CD (56 Å). The extended tail of the P(r) function and larger Dmax for unmod-NCD and phos-NCD is due to scattering from the N-terminal tail region in each case.
SAXS measurements were performed at 20 °C with a MicroMax007HF X-ray generator (Rigaku). A PILATUS100K detector (DECTRIS) at a distance of 561 mm from the sample was used to measure scattering intensities. Each sample solution was transferred to a quartz-window cell with a 1 mm path length. Circular averaging of the scattering intensities was carried out to obtain one-dimensional scattering data I(q) as a function of q (q = 4πsinθ/λ, where 2θ is the scattering angle and λ is the X-ray wavelength 1.5418 Å). To correct for interparticle interference, I(q) data were collected at three different protein concentrations (5, 10, and 15 mg/ml in 50 mM KPB (pH 6.8), 500 mM NaCl, and 5 mM DTT.). The total exposure times were 6 hours for 5 mg/ml, and 3 hours for both 10mg/ml and 15mg/ml. […] To estimate the molecular weight of samples, I(q) data were collected for hen egg white lysozyme (5.2 mg/ml in 50 mM KPB (pH 6.8), 500 mM NaCl). The data were processed by using the software applications embedded in the ATSAS package [ http://www.embl-hamburg.de/biosaxs/software.html]. The radius of gyration Rg and forward scattering intensity I(0) were estimated from the Guinier plot[35] of I(q) in the smaller angle region of qRg < 1.3. The distance distribution function P(r) was calculated in the program GNOM[36], where the experimental I(q) data were used in a q-range from 0.031 to 0.250 Å^−1. The maximum particle dimension Dmax was estimated from the P(r) function as the distance r for which P(r) = 0[35]. The I(q) and Rg of 20 models corresponding to the NMR structures were calculated by using the program CRYSOL[37] and averaged. The molecular weight of the sample was estimated by comparing I(0)/c (where c is the protein concentration) of the sample to that of lysozyme.

[3] = HSQC dilution check for dimer or multimer association; type: physicochemical; conditions: 10-fold diluted samples
Text: It might be possible that the differences in chemical shift observed between unmod-NCD and phos-NCD originate from different dimer or multimer associations due to their N-terminal tails.

[4] = 20 mM KPB (pH 6.80), 10 mM NaCl, 20 °C
[5] = 5 mg/ml, exposure 1 h x6, 50 mM KPB (pH 6.8), 500 mM NaCl, 5 mM DTT, 20 °C
[6] = 10 mg/ml, exposure 1 h x3, pH 6.8, 20 °C
[7] = 15 mg/ml, exposure 1 h x3, pH 6.8, 20 °C

Substance	ΔS (entropy change) ([1]; 20 °C)	Ka ([1]; 20 °C)	ΔH (enthalpy change) ([1]; 20 °C)	pKd [1, 4]	fold weaker binding to H3K9me as compared with NCD^Δ1–9 [1]	fold stronger binding to H3K9me than the CD alone [1]	association state, in words [2]	Rg (radius of gyration) [2, 5]	Estimated molecular weight (association state) ([2]; 5 mg/ml)	Dmax (maximum particle dimension) ([2]; 5 mg/ml)	Rg (radius of gyration) [2, 6]	Estimated molecular weight (association state) ([2]; 10 mg/ml)	Rg (radius of gyration) [2, 7]	Estimated molecular weight (association state) ([2]; 15 mg/ml)	HSQC signal changes upon dilution [3]	times more strongly bound H3K9me than the CD [1]	fold stronger affinity for H3K9me than unmod-NCD ([1]; relative to unmod-NCD)	binding to H3K9me relative to un-phosphorylated NCD^Δ1–9, in words [1]	Kd ([1]; 20 °C, 20 mM KPB (pH 6.80), 10 mM NaCl, value in nM)
NCD^Δ1–4: N-terminal deletion mutant, amino acids 5–80 of HP1α	7.75 cal/mol/K	1.31e+06 ± 50700 M⁻¹	-5.933 ± 0.02294 kcal/mol	6.12	about 4 -fold	–	–	–	–	–	–	–	–	–	–	–	–	–	–
NCD^Δ1–9: N-terminal deletion mutant, amino acid 10–80 of HP1α	5.66 cal/mol/K	6.04e+06 ± 255000 M⁻¹	-7.435 ± 0.01679 kcal/mol	6.80	–	about 83 -fold	–	–	–	–	–	–	–	–	–	–	–	–	–
NCD^Δ1–14: acidic segment plus CD, amino acids 15–80 of HP1α	1.13 cal/mol/K	397000 ± 40700 M⁻¹	-7.178 ± 0.1141 kcal/mol	5.60	–	about 5 -fold	–	–	–	–	–	–	–	–	–	–	–	–	–
NCD^Δ1–19: CD domain alone, amino acids 20–80 of HP1α	-13.0 cal/mol/K	75000 ± 2300 M⁻¹	-1.036E4±103.0 cal/mol	4.88	–	–	monomer	14.0 ± 0.3 Å	6.6 kDa	56 Å	13.8 ± 0.3 Å	6.0 kDa	13.7 ± 0.2 Å	6.1 kDa	–	–	–	–	–
phos-NCD: chromodomain with phosphorylated N-terminal tail, amino acids 1–80 of HP1α, co-expressed with casein kinase II	2.23 cal/mol/K	5.87e+06 ± 521000 M⁻¹	-8.424 ± 0.044 kcal/mol	6.77	–	–	monomer	18.9 ± 0.4 Å	11.7 kDa	94 Å	19.4 ± 0.4 Å	11.7 kDa	19.8 ± 0.3 Å	11.9 kDa	no significant signal changes were observed	about 80 times	approximately 10 -fold	–	–
phos-NCD^Δ1–4: NCD^Δ1–4 (amino acids 5–80) with phosphorylated serine residues	1.14 cal/mol/K	2.61e+06 ± 236000 M⁻¹	-8.271 ± 0.05999 kcal/mol	6.42	–	–	–	–	–	–	–	–	–	–	–	–	–	recovered to a value similar to that of un-phosphorylated NCD^Δ1–9	–
phos-NCD^Δ1–9: phosphorylated NCD^Δ1–9 form, amino acids 10–80 of HP1α	12.6 cal/mol/K	2.58e+07 ± 5.24e+06 M⁻¹	-6.233 ± 0.04246 kcal/mol	–	–	about 330 -fold	–	–	–	–	–	–	–	–	–	more than 300 times	–	–	40 nM
unmod-NCD: chromodomain with un-phosphorylated N-terminal tail, amino acids 1–80 of HP1α	3.16 cal/mol/K	564000 ± 25900 M⁻¹	-6.79 ± 0.04533 kcal/mol	5.75	6 -fold	–	monomer	17.2 ± 0.4 Å	8.8 kDa	79 Å	17.0 ± 0.3 Å	8.5 kDa	17.4 ± 0.3 Å	8.8 kDa	no significant signal changes were observed	–	–	–	–
